Assay results published in patent US12589078B2, “Lipid nanoparticles for delivery of nucleic acids” (CureVac SE, priority 2019, dated 2026).
“And” between values parts separate entries of the source, which are not always exact repeats. Equal entries are not always repeated. Where two headings read alike, the source gives them in different places.

Key:
rabies virus = assay type: in vivo, mice; settings: all animals, day 21 after prime
tumor antigen Trp2 [1] = experiment: Trp2 mRNA vaccination i.d.: T-cell response (TNFα+/IFNγ+ CD4+/CD8+); settings: C57/BL6 mice, day 0, 7, 14
[2] = Particle size and PDI by dynamic light scattering (Malvern Zetasizer Nano); assay type: physicochemical
[3] = Zeta potential by Laser Doppler Microelectrophoresis; assay type: physicochemical
tumor antigen Trp2 [4] = experiment: Trp2 mRNA vaccination i.d.: IgG1/IgG2 endpoint titers (ELISA); settings: C57/BL6 mice, day 0, 7, 14
[5] = system: malaria [NANP]7 peptide or C-terminus peptides; experiment: Malaria CSP mRNA vaccination: ELISA endpoint titers; assay type: in vivo, mice; settings: CSP mRNA i.m., day 35 post prime, Example 22
Description: The mRNA was further enzymatically capped using ScriptCap™ m7G Capping System (CellScript, Madison,WI., USA) according to the manufacturer's instructions and enzymatically polyadenylated using a commercial polyadenylation kit, resulting in SEQ ID NO:38.
The GN01-LNP formulations were applied on days 0 and 21 intramuscularly (i.m.; musculus tibialis) with doses of RNA, formulations, and control groups as shown in Table Ex-20. A negative control group received vaccinations with an irrelevant RNA, formulated in GN01-LNPs. Serum samples were taken at day 21 and day 35 for ELISA.
ELISA was performed using malaria [NANP]7 peptide or C-terminus peptides for coating. Coated plates were incubated using respective serum dilutions, and binding of specific antibodies to the respective malaria [NANP]7 or C-terminus peptide were detected using biotinylated isotype specific anti-mouse antibodies followed by streptavidin-HRP (horse radish peroxidase) with Amplex™ Red Reagent as substrate. Endpoint titers of antibodies (IgG1, IgG2a) directed against the malaria [NANP]7 or C-terminus peptide were measured by ELISA on day 21 and day 35 post prime. […]
ELISA was performed using malaria [NANP]7 peptide for coating. […] Endpoint titers of antibodies (total IgG or IgG as indicated in the respective Figures) directed against the malaria [NANP]7 peptide were measured by ELISA on day 35 post prime.

Work on `CCCCCCCCC(CCCCCC)COC(=O)CCCC(=O)OCCC1CCN(CCSSCCN2CCC(CCOC(=O)CCCC(=O)OCC(CCCCCC)CCCCCCCC)CC2)CC1` (centres unmarked) [Lipid C2, O1-[2-[1-[2-[2-[4-[2-[5-(2-hexyldecoxy)-5-oxo-pentanoyl]oxyethyl]-1-piperidyl]ethyldisulfanyl]ethyl]-4-piperidyl]ethyl] 05-(2-hexyldecyl) pentanedioate] yielded a VNTs (rabies virus; single i.m. 5 μg RABV-G-mRNA) greater than 0.5 IU/ml.

For `CCN1CCC(CCOC(=O)C(CCSSCCC(NC(=O)CC(=O)Oc2c(C)c(C)c3c(c2C)CCC(C)(CCCC(C)CCCC(C)CCCC(C)C)O3)C(=O)OCCC2CCN(CC)CC2)NC(=O)CC(=O)Oc2c(C)c(C)c3c(c2C)CCC(C)(CCCC(C)CCCC(C)CCCC(C)C)O3)CC1` (centres unmarked) [Lipid C10, VitE-C4DE-CysPipSS], the T-cell responses (tumor antigen Trp2 [1]) was “low T-cell responses”, the PDI [2] was 0.50 and 0.34 and the size [2] was 103 nm and 67 nm. For the same molecule, the zeta potential [3] was 36.00 mV and 26.00 mV and the “IgG1 and IgG2 titers” value (tumor antigen Trp2 [4]) was “stable IgG1 and IgG2 titers”.

In the case of `Cc1c(C)c2c(c(C)c1OC(=O)CCC(=O)OCCC1CCN(CCSCCN3CCC(CCOC(=O)CCC(=O)Oc4c(C)c(C)c5c(c4C)CC[C@@](C)(CCC[C@H](C)CCC[C@H](C)CCCC(C)C)O5)CC3)CC1)CC[C@@](C)(CCC[C@H](C)CCC[C@H](C)CCCC(C)C)O2` [Lipid C26, VitE-C4DE-Piperidine-Thioether], the VNTs (rabies virus; single i.m. 1 μg RABV-G-mRNA) is reported as greater than 0.5 IU/ml and the “IgG1 endpoint titers ([NANP]7 peptide)” value [5] is reported as “very strong humoral immune responses”.
